# Results reported in PMC10150366, “Discovery of an In Vivo Chemical Probe for BCL6 Inhibition by Optimization of Tricyclic Quinolinones” (Journal of Medicinal Chemistry, 2023).
# Columns and labels:
# [1] = tested on: SU-DHL-4; assay: 14-day cell proliferation assay, SU-DHL-4; type: cell-based; conditions: Homo sapiens, 14-day assay
# From the text: DMSO final concentration.
# After a short centrifugation the
# (1st emission filter) / 450-80 nm (2nd emission filter). The % inhibition at each test concentration was […]
# sigmoidal four-parameter logistic fit equation.
# 2.3 Cell proliferation assay
# Aldrich) supplemented with 10% FBS (Gibco). Compounds were initially dispensed into 96-well U-bottom […]
# transferred onto the cells.
# Assay plates containing cells
# (Beckman Coulter). The volume of medium containing 2500 cells in the control well was calculated and this volume of cells was transferred from every well of the assay plates to the corresponding well of the fresh plates containing compound. After 14 days, CellTiter Glo reagent (Promega) was added to the medium in each well of the assay plate at a ratio of 1:2, mixed on a plate shaker, then incubated at room temperature for 10 minutes. Luminescence was measured using an Envision plate reader (Perkin Elmer) and the relative luminescence at each compound concentration, compared to DMSO alone, was calculated. GI50 were determined using a 4-parameter curve fit in Dotmatics (Bishops Stortford, UK).
# [2] = target: kinase panel (468) (Homo sapiens, UniProt P00519, H396P); assay: KINOMEscan scanMAX kinase panel (468); type: binding
# [3] = target: kinase panel (468); assay: KINOMEscan scanMAX kinase panel (468); type: binding; conditions: for Percent Control: 10000 nM
# [4] = target: T1, ADRA1A (Homo sapiens, UniProt P35348); assay: SAFETYscan Calcium Flux ADRA1A Agonist; type: cell-based
# T1 sequence (P35348 1-466): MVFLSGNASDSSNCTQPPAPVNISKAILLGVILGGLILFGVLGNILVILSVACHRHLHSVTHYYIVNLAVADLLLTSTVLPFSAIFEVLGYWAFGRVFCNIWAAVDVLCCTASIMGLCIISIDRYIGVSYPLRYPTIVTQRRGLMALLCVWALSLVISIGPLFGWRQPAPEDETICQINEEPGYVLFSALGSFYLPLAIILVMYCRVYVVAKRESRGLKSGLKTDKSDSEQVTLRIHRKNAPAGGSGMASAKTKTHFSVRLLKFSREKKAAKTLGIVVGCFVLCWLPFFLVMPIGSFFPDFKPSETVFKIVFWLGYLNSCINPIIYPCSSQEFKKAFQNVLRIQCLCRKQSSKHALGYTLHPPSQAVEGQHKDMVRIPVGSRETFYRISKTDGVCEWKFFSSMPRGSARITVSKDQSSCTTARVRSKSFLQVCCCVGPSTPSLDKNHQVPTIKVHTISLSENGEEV
# From the text: (§1) Supplement jm3c00155_si_002.xlsx, sheet "SAFETYScan" | column: RC50 (uM); Max Response
# [5] = target: HRH1 (Homo sapiens, UniProt P35367); assay: SAFETYscan Calcium Flux HRH1 Agonist; type: cell-based
# Sequence of HRH1 (P35367 whole entry): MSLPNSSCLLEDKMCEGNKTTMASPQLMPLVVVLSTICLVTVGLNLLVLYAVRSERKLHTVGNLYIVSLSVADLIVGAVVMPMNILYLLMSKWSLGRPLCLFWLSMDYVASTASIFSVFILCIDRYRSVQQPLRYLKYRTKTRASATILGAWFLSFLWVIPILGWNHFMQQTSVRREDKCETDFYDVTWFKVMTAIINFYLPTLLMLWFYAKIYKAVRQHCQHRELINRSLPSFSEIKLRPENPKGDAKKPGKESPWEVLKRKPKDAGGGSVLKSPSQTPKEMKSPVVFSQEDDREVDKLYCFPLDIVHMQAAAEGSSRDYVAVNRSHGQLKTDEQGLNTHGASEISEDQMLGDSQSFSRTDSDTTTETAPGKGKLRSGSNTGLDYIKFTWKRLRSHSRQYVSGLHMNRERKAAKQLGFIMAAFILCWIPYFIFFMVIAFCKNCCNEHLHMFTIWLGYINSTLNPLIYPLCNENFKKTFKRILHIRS
# From the text: as §1
# [6] = target: HTR2B (Homo sapiens, UniProt P41595); assay: SAFETYscan Calcium Flux HTR2B Agonist; type: cell-based
# Sequence of HTR2B (P41595 whole entry): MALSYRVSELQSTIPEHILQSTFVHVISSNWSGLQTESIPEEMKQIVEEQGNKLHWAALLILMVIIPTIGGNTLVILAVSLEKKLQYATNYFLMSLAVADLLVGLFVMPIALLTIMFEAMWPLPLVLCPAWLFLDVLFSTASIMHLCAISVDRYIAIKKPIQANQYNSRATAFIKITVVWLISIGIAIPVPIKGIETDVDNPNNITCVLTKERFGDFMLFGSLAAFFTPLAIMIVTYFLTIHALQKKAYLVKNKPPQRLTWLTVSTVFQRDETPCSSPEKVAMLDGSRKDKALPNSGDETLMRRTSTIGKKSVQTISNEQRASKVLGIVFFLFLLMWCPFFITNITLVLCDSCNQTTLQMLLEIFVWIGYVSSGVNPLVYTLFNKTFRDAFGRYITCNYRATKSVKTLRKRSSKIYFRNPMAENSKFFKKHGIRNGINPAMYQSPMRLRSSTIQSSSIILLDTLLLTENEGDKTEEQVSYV
# From the text: as §1
# [7] = target: T1, ADRA1A; assay: SAFETYscan Calcium Flux ADRA1A Antagonist; type: cell-based
# From the text: as §1
# [8] = target: T2, EDNRA (Homo sapiens, UniProt P25101); assay: SAFETYscan Calcium Flux EDNRA Antagonist; type: cell-based
# T2 sequence (P25101 21-427): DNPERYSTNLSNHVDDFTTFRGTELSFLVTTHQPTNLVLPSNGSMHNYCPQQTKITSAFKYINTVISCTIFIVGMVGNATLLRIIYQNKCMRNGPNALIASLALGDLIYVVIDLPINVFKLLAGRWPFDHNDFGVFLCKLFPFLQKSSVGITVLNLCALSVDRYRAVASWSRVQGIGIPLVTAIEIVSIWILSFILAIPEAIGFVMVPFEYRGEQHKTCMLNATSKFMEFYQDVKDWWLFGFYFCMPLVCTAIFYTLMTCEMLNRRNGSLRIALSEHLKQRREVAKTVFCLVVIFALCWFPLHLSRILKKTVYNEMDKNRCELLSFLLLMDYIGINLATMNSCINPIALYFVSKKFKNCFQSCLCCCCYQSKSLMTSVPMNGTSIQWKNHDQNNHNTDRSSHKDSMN
# From the text: as §1
# [9] = target: HTR2A (Homo sapiens, UniProt P28223); assay: SAFETYscan Calcium Flux HTR2A Antagonist; type: cell-based
# Sequence of HTR2A (P28223 whole entry): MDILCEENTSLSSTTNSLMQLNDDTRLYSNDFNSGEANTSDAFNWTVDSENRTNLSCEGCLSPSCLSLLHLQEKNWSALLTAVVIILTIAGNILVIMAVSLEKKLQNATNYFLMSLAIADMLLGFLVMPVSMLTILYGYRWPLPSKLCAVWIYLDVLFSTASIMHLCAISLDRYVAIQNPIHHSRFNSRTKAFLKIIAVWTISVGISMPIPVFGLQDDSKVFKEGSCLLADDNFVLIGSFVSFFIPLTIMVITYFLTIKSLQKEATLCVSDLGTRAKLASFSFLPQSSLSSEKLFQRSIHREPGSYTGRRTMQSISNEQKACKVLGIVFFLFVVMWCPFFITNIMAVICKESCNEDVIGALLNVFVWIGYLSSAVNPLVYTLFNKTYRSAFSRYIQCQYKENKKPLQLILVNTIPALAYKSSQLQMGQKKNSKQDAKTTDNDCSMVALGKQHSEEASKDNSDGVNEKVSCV
# From the text: as §1
# [10] = target: HTR1B (Homo sapiens, UniProt P28222); assay: SAFETYscan cAMP HTR1B Agonist; type: cell-based
# Sequence of HTR1B (P28222 whole entry): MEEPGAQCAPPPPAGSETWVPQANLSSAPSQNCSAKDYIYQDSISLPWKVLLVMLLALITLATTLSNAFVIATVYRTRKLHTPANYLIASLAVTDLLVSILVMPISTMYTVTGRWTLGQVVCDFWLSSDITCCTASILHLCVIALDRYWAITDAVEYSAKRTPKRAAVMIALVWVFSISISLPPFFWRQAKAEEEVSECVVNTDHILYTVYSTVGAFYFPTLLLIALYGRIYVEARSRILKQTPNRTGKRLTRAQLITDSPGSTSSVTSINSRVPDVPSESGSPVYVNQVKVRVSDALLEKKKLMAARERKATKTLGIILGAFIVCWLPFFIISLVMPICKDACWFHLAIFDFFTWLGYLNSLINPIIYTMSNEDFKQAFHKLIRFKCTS
# From the text: (§2) Supplement jm3c00155_si_002.xlsx, sheet "SAFETYScan" | column: RC50 (uM); Hill; Max Response
# [11] = target: DRD1 (Homo sapiens, UniProt P21728); assay: SAFETYscan cAMP DRD1 Antagonist; type: cell-based
# Sequence of DRD1 (P21728 whole entry): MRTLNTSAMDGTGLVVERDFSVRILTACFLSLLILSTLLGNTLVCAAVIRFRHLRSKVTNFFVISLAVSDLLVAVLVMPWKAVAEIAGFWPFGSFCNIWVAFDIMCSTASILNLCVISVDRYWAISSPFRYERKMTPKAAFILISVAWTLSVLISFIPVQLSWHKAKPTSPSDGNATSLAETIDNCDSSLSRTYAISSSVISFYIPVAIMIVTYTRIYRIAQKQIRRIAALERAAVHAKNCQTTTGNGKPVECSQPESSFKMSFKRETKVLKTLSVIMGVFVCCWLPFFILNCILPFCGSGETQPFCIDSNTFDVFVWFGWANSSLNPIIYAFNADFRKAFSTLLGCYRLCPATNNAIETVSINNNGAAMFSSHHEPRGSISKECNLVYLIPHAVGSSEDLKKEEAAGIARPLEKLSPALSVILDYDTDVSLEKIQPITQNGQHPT
# From the text: as §2
# [12] = target: T3, HTR3A (Homo sapiens, UniProt P46098); assay: SAFETYscan Ion Channel HTR3A Opener; type: cell-based
# T3 sequence (P46098 24-478): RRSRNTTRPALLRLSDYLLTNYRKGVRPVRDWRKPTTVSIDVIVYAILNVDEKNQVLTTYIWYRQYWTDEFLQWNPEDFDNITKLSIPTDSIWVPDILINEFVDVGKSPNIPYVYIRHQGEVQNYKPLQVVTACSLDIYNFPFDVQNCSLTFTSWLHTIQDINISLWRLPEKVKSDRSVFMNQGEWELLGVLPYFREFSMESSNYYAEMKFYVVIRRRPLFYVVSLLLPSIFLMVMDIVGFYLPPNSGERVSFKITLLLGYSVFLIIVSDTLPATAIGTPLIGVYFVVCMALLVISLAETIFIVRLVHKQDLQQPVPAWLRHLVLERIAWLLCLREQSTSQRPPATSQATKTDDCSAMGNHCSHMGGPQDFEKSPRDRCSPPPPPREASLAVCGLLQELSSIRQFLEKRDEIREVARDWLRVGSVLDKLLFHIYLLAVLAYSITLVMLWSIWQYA
# From the text: as §1
compound,measurement,setting,value
"Cn1c(=O)c2c(c3cc(Nc4ccnc(F)c4Cl)ccc31)N[C@@H](C1CC1)C(F)(F)CO2 [compound 17, (S)-10-((3-chloro-2-fluoropyridin-4-yl)amino)-2-cyclopropyl-3,3-difluoro-7-methyl-1,2,3,4-tetrahydro-[1,4]oxazepino[2,3-c]quinolin-6(7H)-one]",GI50,[1],1.38 µM
same,Percent Control,[2],84%
same,kinase panel (468) outcome,[3],selective activity and minimal off-target interactions
same,Percent Control,"[3]; EGFR(L747-E749del, A750P)",93%
same,Percent Control,"[3]; EGFR(L747-S752del, P753S)",67%
same,Percent Control,"[3]; EGFR(L747-T751del,Sins)",100%
same,Percent Control,[3]; FLT3(ITD),98%
same,Percent Control,"[3]; FLT3(ITD,D835V)",100%
same,Percent Control,"[3]; FLT3(ITD,F691L)",100%
same,EC50,[4],> 10 µM
same,Emax,"[4]; ADRA1A, Calcium Flux, Agonist, read-out: Max Response",0%
same,Emax,[5]; read-out: Max Response,0%
same,EC50,[5]; read-out: RC50 (EC50),> 10 µM
same,EC50,[6],> 10 µM
same,Emax,"[6]; HTR2B, Calcium Flux, Agonist, read-out: Max Response",0%
same,IC50,[7],> 10 µM
same,Emax,"[7]; ADRA1A, Calcium Flux, Antagonist, read-out: Max Response",0%
same,Emax,[8]; read-out: Max Response,0%
same,IC50,[8]; read-out: RC50 (IC50),> 10 µM
same,IC50,[9],> 10 µM
same,Emax,"[9]; HTR2A, Calcium Flux, Antagonist, read-out: Max Response",5.28%
same,EC50,[10],9.13 µM
same,Hill,"[10]; HTR1B, cAMP, Agonist",0.76
same,Emax,"[10]; HTR1B, cAMP, Agonist, read-out: Max Response",50.3%
same,IC50,[11],2.58 µM
same,Hill,"[11]; DRD1, cAMP, Antagonist",1.27
same,Emax,"[11]; DRD1, cAMP, Antagonist, read-out: Max Response",82.7%
same,EC50,[12],> 10 µM
same,Emax,"[12]; HTR3A, Ion Channel, Opener, read-out: Max Response",0%
